For this test, the target named is T1, HDAC6 (Homo sapiens, UniProt Q9UBN7).
T1 sequence (Q9UBN7 1-1215): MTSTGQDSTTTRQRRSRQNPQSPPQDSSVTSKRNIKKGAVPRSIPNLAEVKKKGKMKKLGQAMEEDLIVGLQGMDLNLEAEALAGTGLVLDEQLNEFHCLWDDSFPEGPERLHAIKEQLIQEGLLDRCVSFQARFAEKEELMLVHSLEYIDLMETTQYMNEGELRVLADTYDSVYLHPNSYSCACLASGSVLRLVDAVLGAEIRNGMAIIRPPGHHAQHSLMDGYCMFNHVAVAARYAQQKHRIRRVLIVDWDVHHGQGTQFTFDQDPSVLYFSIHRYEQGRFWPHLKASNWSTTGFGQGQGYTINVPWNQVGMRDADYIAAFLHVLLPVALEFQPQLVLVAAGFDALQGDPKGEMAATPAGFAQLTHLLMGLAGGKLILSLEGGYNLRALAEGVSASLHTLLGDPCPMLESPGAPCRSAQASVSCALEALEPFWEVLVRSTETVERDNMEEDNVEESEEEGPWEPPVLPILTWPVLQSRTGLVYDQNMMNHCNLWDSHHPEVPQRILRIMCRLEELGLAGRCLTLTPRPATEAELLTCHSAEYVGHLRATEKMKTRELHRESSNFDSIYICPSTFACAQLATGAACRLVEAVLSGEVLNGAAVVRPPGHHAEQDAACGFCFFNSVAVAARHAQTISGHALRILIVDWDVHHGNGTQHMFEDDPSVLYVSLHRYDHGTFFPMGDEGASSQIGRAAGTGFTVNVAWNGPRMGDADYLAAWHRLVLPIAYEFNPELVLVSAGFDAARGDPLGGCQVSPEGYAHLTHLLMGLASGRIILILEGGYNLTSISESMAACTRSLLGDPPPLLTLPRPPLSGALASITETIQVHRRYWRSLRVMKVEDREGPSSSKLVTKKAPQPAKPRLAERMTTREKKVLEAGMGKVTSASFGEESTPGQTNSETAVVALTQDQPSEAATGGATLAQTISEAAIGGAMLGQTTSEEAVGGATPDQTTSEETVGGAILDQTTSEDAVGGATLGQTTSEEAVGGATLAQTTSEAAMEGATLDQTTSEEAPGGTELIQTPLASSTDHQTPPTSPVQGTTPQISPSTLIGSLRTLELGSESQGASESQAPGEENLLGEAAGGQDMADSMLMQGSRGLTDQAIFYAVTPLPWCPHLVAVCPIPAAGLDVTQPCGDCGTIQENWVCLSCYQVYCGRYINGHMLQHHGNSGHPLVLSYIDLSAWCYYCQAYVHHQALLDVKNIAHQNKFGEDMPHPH
As to the kind of experiment: HDAC6 inhibition, modified Fluor-de-Lys assay. The format is biochemical. The settings on record: 3 h pre-incubation, read-out: HDAC-6 IC50. The procedure: Human HDAC Enzyme Inhibitor FLUOR-DE-LYS Assay Materials
The histone deacetylase activities of HDAC1, HDAC2, HDAC3, HDAC6, and HDAC8 were measured in modified Fluor-de-Lys assays in 384-well format. In this assay, HDAC enzymes are initially incubated with an ε-acetyl (or -trifluoroacetyl)-L-lysine-containing substrate with a C-terminal amide having aminomethylcoumarin as the amine component. HDACs cleave the ε-acetyl group, rendering the resulting product susceptible to AMC cleavage by trypsin. The released AMC is then detected by its fluorescence.
The HDAC 1, 2 assays employed buffer A, which contained 20 mM HEPES, pH 8.0, 1 mM MgCl2, 137 mM NaCl, 2.7 mM KCl, 0.05% BSA. The HDAC3/SMRT assay employed buffer B, consisting of 20 mM HEPES, pH 8.0, 1 mM MgCl2, 50 mM NaCl, 2.7 mM KCl, 0.05% BSA, 0.005% Tween 20, and 10 μM IP4. The HDAC6 assay employed buffer C, consisting of 20 mM HEPES, pH 8.0, 1 mM MgCl2, 137 mM NaCl, 2.7 mM KCl, 0.5 mM TCEP (Calbiochem) and 0.05% BSA. The HDAC8 assay employed buffer D, consisting of 20 mM HEPES, pH 8.0, 1 mM MgCl2, 100 mM NaCl, 20 mM KCl, 0.1% n-octyl-β-D-glucoside (Anatrace, Maumee, Ohio) and 0.05% BSA. All steps were performed at room temperature (23° C.). The assay was performed by pre-incubating serial dilutions of test compounds with the target HDAC prior to initiation with substrate. Each compound was titrated in a 10-point dose response, using a 1:3 fold dilution scheme, with 0.15 ul of solution added by ECHO555 to the plate, followed by the addition of 20 μl of the appropriate HDAC isoform diluted in appropriate assay buffer. […] Final conditions used for each assay were: 1. HDAC 1, 0.3 nM total enzyme, 20 μM substrate BML-KI104; 2. HDAC 2, 1.5 nM total enzyme, 40 μM substrate BML-KI104; 3. HDAC 3/SMRT, 0.3 nM total enzyme, 20 μM substrate BML-KI104; 4. HDAC 6, 1.3 nM total enzyme, 2.5 μM substrate BML-KI104; 5. HDAC 8, 1.3 nM total enzyme, 200 μM substrate BML-KI178; the final high dose of test compound was 30 μM. For potent compounds, 900 nM was used as the final high dose. The reactions were stopped and developed by addition of 30 ul of HDAC developer solution containing a saturating level of HDAC inhibitor as follows: 1.

The mark [1] stands for this setting: […] enzyme, […] substrate BML-KI104.
Where [2] appears, read: 1.3 nM enzyme, 2.5 μM substrate BML-KI104.

pIC50: −log10 of the molar value. Like-named read-outs stand apart in the source and are kept apart here.

In general, pIC50 refers to −log10 of the IC50, conventionally taken in molar units. Turning to `CCC(=O)CCCCC[C@@H]1NC(=O)[C@H]2CC23CCN(CCCCCCCCn2ccc4cc(c(OC)cc4c2=O)-c2cnc1[nH]2)CC3` [Compound 5, (1^1S,4S)-6^7-methoxy-4-(6-oxooctyl)-6^1,6^2-dihydro-5^1H-3-aza-6(6,2)-isoquinolina-15(4,1)-piperidina-5(2,5)-imidazola-1(1,2)-cyclopropanapentadecaphane-6^1,2-dione], the pIC50 under setting [1] was 6.66. On to `CCC(=O)CCCCCC1NC(=O)C2CC2N2CCC(CCCCCn3c(=O)ccc4cc(ccc43)-c3cnc1o3)CC2` [Compound 7, (11S,4S)-4-(6-oxooctyl)-61,62-dihydro-3-aza-5(2,5)-oxazola-6(6,1)-quinolina-12(4,1)-piperidina-1(1,2)-cyclopropanadodecaphane-62,2-dione], for which the pIC50 under setting [1] is 6.07. With `CCC(=O)CCCCC[C@H](NC(=O)[C@H]1CC12CCN(CC)CC2)c1[nH]c2nc1C(=O)NCCC/C=C\c1cccc-2c1` [Compound 14, (1S)-6-ethyl-N-{(1S)-7-oxo-1-[(11Z)-6-oxo-3,7,18-triazatricyclo[11.3.1.1~2,5~]octadeca-1(17),2(18),4,11,13,15-hexaen-4-yl]nonyl}-6-azaspiro[2.5]octane-1-carboxamide], under setting [2], the pIC50 is less than 7.05. As to `CCC(=O)CCCCC[C@H](NC(=O)[C@H]1CC12CCN(CC)CC2)c1[nH]c2nc1C(=O)NCCC/C=C/c1cccc-2c1` [Compound 15, (1S)-6-ethyl-N-{(1S)-7-oxo-1-[(11E)-6-oxo-3,7,18-triazatricyclo[11.3.1.1~2,5~]octadeca-1(17),2(18),4,11,13,15-hexaen-4-yl]nonyl}-6-azaspiro[2.5]octane-1-carboxamide], the pIC50 under setting [2] was less than 6.05. “(11S,4S)-4-(6-oxooctyl)-61,62-dihydro-3-aza-5(2,5)-oxazola-6(6,1)-quinolina-12(4,1)-piperidina-1(1,2)-cyclopropanadodecaphane-62,2-dione [Compound 8]”: the pIC50 under setting [1] is less than 6.05.
